Earlier results as cited in paper PMC9688344, “[^225Ac]Ac-SibuDAB for Targeted Alpha Therapy of Prostate Cancer: Preclinical Evaluation and Comparison with [^225Ac]Ac-PSMA-617” (Cancers, 2022).
Like-named read-outs stand apart in the source and are kept apart here.

Columns and labels:
[1] = cited from earlier work
[2] = patients; cited from earlier work
[3] = system: PSMA-positive PC-3 PIP cells; settings: 4 h incubation; ref Tschan et al., Eur J Nucl Med Mol Imaging 2022; cited from earlier work
[4] = system: PC3-PIP/flu tumor-bearing mice; settings: ref Benešová et al., Mol Pharm 2018, cited from earlier work
[5] = target: T1, PSMA (Homo sapiens, UniProt Q04609); settings: ref Deberle & Benešová et al., Theranostics 2020; cited from earlier work
T1 construct: expressed in transfected cells; host or cells: PC-3 PIP prostate cancer cells (transduced to express PSMA), provided by Prof; Dr. Martin Pomper, Johns Hopkins University
T1 sequence (Q04609 whole entry): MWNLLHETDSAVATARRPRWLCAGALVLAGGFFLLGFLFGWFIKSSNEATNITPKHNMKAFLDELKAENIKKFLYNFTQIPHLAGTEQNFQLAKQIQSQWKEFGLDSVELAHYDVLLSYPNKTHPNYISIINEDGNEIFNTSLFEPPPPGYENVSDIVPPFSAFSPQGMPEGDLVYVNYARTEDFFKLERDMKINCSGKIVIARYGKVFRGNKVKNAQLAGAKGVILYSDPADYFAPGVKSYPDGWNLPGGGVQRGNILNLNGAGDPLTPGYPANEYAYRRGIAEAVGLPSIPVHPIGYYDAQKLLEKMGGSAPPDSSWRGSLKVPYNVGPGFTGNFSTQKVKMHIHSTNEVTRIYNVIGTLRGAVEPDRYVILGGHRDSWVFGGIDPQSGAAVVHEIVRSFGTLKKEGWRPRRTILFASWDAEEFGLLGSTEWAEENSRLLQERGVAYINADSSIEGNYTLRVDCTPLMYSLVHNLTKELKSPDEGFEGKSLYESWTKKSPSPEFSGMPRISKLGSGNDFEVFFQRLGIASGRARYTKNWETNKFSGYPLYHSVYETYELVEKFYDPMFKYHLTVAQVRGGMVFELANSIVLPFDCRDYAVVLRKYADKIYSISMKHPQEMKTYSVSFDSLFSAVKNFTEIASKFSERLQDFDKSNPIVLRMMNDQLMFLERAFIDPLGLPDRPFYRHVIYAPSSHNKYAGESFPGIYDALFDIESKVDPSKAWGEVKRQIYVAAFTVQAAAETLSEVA

## O=C([O-])CN1CCN(CC(=O)[O-])CCN(CC(=O)NCC2CCC(C(=O)NC(Cc3ccc4ccccc4c3)C(=O)NCCCCC(NC(=O)NC(CCC(=O)O)C(=O)O)C(=O)O)CC2)CCN(CC(=O)[O-])CC1.[177Lu+3] (stereo not drawn) [[^177Lu]Lu-PSMA-617]
[1]
  logD value: −4.4 ± 0.2
[2]
  salivary gland uptake: 1.41 ± 0.53 Gy/GBq
[3]
  Cell uptake: 60 ± 5%
  Internalized fraction: 13 ± 2%
[4]; 1 h p.i.
  Blood, accumulated activity: 0.50 ± 0.06 % IA/g
  Bone, accumulated activity: 0.21 ± 0.04 % IA/g
  Heart, accumulated activity: 0.29 ± 0.03 % IA/g
  Intestines, accumulated activity: 0.24 ± 0.01 % IA/g
  Kidneys, accumulated activity: 9.8 ± 1.4 % IA/g
  Liver, accumulated activity: 0.20 ± 0.04 % IA/g
  Lung, accumulated activity: 0.57 ± 0.07 % IA/g
  Muscle, accumulated activity: 0.25 ± 0.20 % IA/g
  PC-3 PIP tumor, accumulated activity: 44 ± 12 % IA/g
  PC-3 flu tumor, accumulated activity: 0.28 ± 0.04 % IA/g
  Salivary glands, accumulated activity: 0.42 ± 0.30 % IA/g
  Spleen, accumulated activity: 0.63 ± 0.27 % IA/g
  Stomach, accumulated activity: 0.18 ± 0.02 % IA/g
  Tumor-to-blood ratio: 88 ± 13
  Tumor-to-kidney ratio: 4.5 ± 0.7
  Tumor-to-liver ratio: 213 ± 17
[4]; 4 h p.i.
  Blood, accumulated activity: ≤ 0.10 % IA/g
  Bone, accumulated activity: ≤ 0.10 % IA/g
  Heart, accumulated activity: ≤ 0.10 % IA/g
  Intestines, accumulated activity: ≤ 0.10 % IA/g
  Kidneys, accumulated activity: 3.7 ± 1.1 % IA/g
  Liver, accumulated activity: ≤ 0.10 % IA/g
  Lung, accumulated activity: ≤ 0.10 % IA/g
  Muscle, accumulated activity: ≤ 0.10 % IA/g
  PC-3 PIP tumor, accumulated activity: 56 ± 8 % IA/g
  PC-3 flu tumor, accumulated activity: ≤ 0.10 % IA/g
  Salivary glands, accumulated activity: ≤ 0.10 % IA/g
  Spleen, accumulated activity: 0.15 ± 0.04 % IA/g
  Stomach, accumulated activity: ≤ 0.10 % IA/g
  Tumor-to-blood ratio: 2315 ± 108
  Tumor-to-kidney ratio: 16 ± 2
  Tumor-to-liver ratio: 598 ± 108
[4]; 24 h p.i.
  Blood, accumulated activity: ≤ 0.10 % IA/g
  Bone, accumulated activity: ≤ 0.10 % IA/g
  Heart, accumulated activity: ≤ 0.10 % IA/g
  Intestines, accumulated activity: ≤ 0.10 % IA/g
  Kidneys, accumulated activity: 0.76 ± 0.15 % IA/g
  Liver, accumulated activity: ≤ 0.10 % IA/g
  Lung, accumulated activity: ≤ 0.10 % IA/g
  Muscle, accumulated activity: ≤ 0.10 % IA/g
  PC-3 PIP tumor, accumulated activity: 37 ± 6 % IA/g
  PC-3 flu tumor, accumulated activity: ≤ 0.10 % IA/g
  Salivary glands, accumulated activity: ≤ 0.10 % IA/g
  Spleen, accumulated activity: ≤ 0.10 % IA/g
  Stomach, accumulated activity: ≤ 0.10 % IA/g
  Tumor-to-blood ratio: 2730 ± 195
  Tumor-to-kidney ratio: 50 ± 4
  Tumor-to-liver ratio: 528 ± 51
[4]; 48 h p.i.
  Blood, accumulated activity: ≤ 0.10 % IA/g
  Bone, accumulated activity: ≤ 0.10 % IA/g
  Heart, accumulated activity: ≤ 0.10 % IA/g
  Intestines, accumulated activity: ≤ 0.10 % IA/g
  Kidneys, accumulated activity: 0.35 ± 0.05 % IA/g
  Liver, accumulated activity: ≤ 0.10 % IA/g
  Lung, accumulated activity: ≤ 0.10 % IA/g
  Muscle, accumulated activity: ≤ 0.10 % IA/g
  PC-3 PIP tumor, accumulated activity: 28 ± 4 % IA/g
  PC-3 flu tumor, accumulated activity: ≤ 0.10 % IA/g
  Salivary glands, accumulated activity: ≤ 0.10 % IA/g
  Spleen, accumulated activity: ≤ 0.10 % IA/g
  Stomach, accumulated activity: ≤ 0.10 % IA/g
  Tumor-to-blood ratio: 3776 ± 585
  Tumor-to-kidney ratio: 81 ± 11
  Tumor-to-liver ratio: 710 ± 97
[5]
  Kd: 13 nM
